From US6784137B2, “6-aryl-4-aminopicolinates and their use as herbicides” (Dow AgroSciences LLC, priority 2001, dated 2004)
Like-named read-outs stand apart in the source and are kept apart here.

What was measured:
[1] = tested on: Barnyardgrass (Echinochloa crus-galli); test: Postemergence herbicidal activity, greenhouse spray; assay type: in vivo; conditions: Echinochloa crus-galli, post-emergence, 336 h, visual score after 2 weeks, read-out: Post-emergent % control ECHCG; for pest or weed control at 250 ppm: rate 250 ppm; for pest or weed control at 500 ppm: rate 500 ppm; for pest or weed control at 125 ppm: rate 125 ppm
Protocol: (§1) When required to ensure good germination and healthy plants, a fungicide treatment and/or other chemical or physical treatment was applied. The plants were grown for 7-21 days in a greenhouse with an approximate 15 hr photoperiod which was maintained at about 23-29° C. during the day and 22-28° C. during the night. Nutrients and water were added on a regular basis and supplemental lighting was provided with overhead metal halide 1000-Watt lamps as necessary. The plants were employed for testing when they reached the first or second true leaf stage. A weighed amount, determined by the highest rate to be tested, of each test compound was placed in a 20 mL glass vial and was dissolved in 4 mL of a 97:3 v/v (volume/volume) mixture of acetone and dimethyl sulfoxide (DMSO) to obtain concentrated stock solutions. […] The concentrated stock solutions obtained were diluted with an aqueous mixture containing acetone, water, isopropyl alcohol, DMSO, At plus 411 F crop oil concentrate, and Triton X-155 surfactant in a 48.5:39:10:1.5:1.0:0.02 v/v ratio to obtain spray solutions of known concentration. The solutions containing the highest concentration to be tested were prepared by diluting 2 mL aliquots of the stock solution with 13 mL of the mixture and lower concentrations were prepared by serial dilution of the stock solution. Approximately 1.5 mL aliquots of each solution of known concentration were sprayed evenly onto each of the test plant pots using a DeVilbiss atomizer driven by compressed air pressure of 2 to 4 psi (140 to 280 kiloPascals) to obtain thorough coverage of each plant. Control plants were sprayed in the same manner with the aqueous mixture. […] The treated plants and control plants were placed in a greenhouse as described above and watered by sub-irrigation to prevent wash-off of the test compounds.

[2] = tested on: Cocklebur (Xanthium strumarium); test: as above; assay type: in vivo; conditions: Xanthium strumarium, post-emergence, 336 h, visual score after 2 weeks, read-out: Post-emergent % control XANST; for pest or weed control at 250 ppm: rate 250 ppm; for pest or weed control at 500 ppm: rate 500 ppm, 0 no injury, 100 complete kill; for pest or weed control at 125 ppm: rate 125 ppm
Protocol: as §1

[3] = tested on: Lambsquarter (Chenopodium album); test: as above; assay type: in vivo; conditions: Chenopodium album, post-emergence, 336 h, visual score after 2 weeks, read-out: Post-emergent % control CHEAL; for pest or weed control at 250 ppm: rate 250 ppm; for pest or weed control at 500 ppm: rate 500 ppm; for pest or weed control at 125 ppm: rate 125 ppm
Protocol: as §1

[4] = tested on: Yellow nutsedge (Cyperus esculentus); test: as above; assay type: in vivo; conditions: Cyperus, post-emergence, 336 h, visual score after 2 weeks, read-out: Post-emergent % control CYPES; for pest or weed control at 250 ppm: rate 250 ppm; for pest or weed control at 500 ppm: rate 500 ppm; for pest or weed control at 125 ppm: rate 125 ppm
Protocol: as §1

[5] = tested on: Crabgrass(large) (Digitaria sanguinalis); test: Preemergence herbicidal activity, soil spray; assay type: in vivo; conditions: Digitaria sanguinalis, pre-emergence, 504 h, Table 5, visual score after 3 weeks, read-out: Pre-emergent % control DIGSA
From the text: (§2) Seeds of the desired test plant species were planted in a soil matrix prepared by mixing a loam soil (43 percent silt, 19 percent clay, and 38 percent sand, with a pH of about 8.1 and an organic matter content of about 1.5 percent) and sand in a 70 to 30 ratio. The soil matrix was contained in plastic pots with a surface area of 113 square centimeters. When required to ensure good germination and healthy plants, a fungicide treatment and/or other chemical or physical treatment was applied. A weighed amount, determined by the highest rate to be tested, of each test compound was placed in a 20 mL glass vial and was dissolved in 4 mL of a 97:3 v/v (volume/volume) mixture of acetone and dimethyl sulfoxide to obtain concentrated stock solutions. […] The stock solutions obtained were diluted with a 99.9:0.1 mixture of water and Tween® 155 surfactant to obtain application solutions of known concentration. The solutions containing the highest concentration to be tested were prepared by diluting 2 mL aliquots of the stock solution with 15 mL of the mixture and lower concentrations were prepared by serial dilution of the stock solution. A 2.5 mL aliquot of each solution of known concentration was sprayed evenly onto the soil surface (113 sq. cm) of each seeded pot using a Cornwall 5.0 mL glass syringe fitted with a TeeJet TN-3 hollow cone nozzle to obtain thorough coverage of the soil in each pot. Control pots were sprayed in the same manner with the aqueous mixture. The treated pots and control pots were placed in a greenhouse maintained with an approximate 15 hr photoperiod and temperatures of about 23-29° C. during the day and 22-28° C. during the night. Nutrients and water were added on a regular basis and supplemental lighting was provided with overhead metal halide 1000-Watt lamps as necessary. The water was added by top-irrigation.

[6] = tested on: Giant Foxtail (Setaria faberi); test: Preemergence herbicidal activity, soil spray; assay type: in vivo; conditions: Setaria faberi, pre-emergence, 504 h, Table 5, visual score after 3 weeks, read-out: Pre-emergent % control SETFA
From the text: as §2

[7] = tested on: Lambsquarter (Chenopodium album); test: Preemergence herbicidal activity, soil spray; assay type: in vivo; conditions: Chenopodium album, pre-emergence, 504 h; Table 5; rate 560 ppm; visual score after 3 weeks, 100 complete kill or no germination; read-out: Pre-emergent % control CHEAL
From the text: as §2

[8] = tested on: Pigweed (redroot) (Amaranthus retroflexus); test: Preemergence herbicidal activity, soil spray; assay type: in vivo; conditions: Amaranthus retroflexus, pre-emergence, 504 h, Table 5, visual score after 3 weeks, read-out: Pre-emergent % control AMARE
From the text: as §2

`COC(=O)c1nc(-c2ccc(C(F)(F)F)cc2)c(Cl)c(N)c1Cl` [Compound 44, Methyl 4-amino-3,5-dichloro-6-[4-(trifluoromethyl)phenyl]pyridine-2-carboxylate] showed a pest or weed control at 250 ppm ([1]; Table 1) of 30%, a pest or weed control at 250 ppm ([2]; Table 1) of 100% and a pest or weed control at 250 ppm ([3]; Table 1) of 80%. For the same molecule, the pest or weed control at 250 ppm ([4]; Table 1) was 70% and the melting point was 110 to 111 °C.
Work on `Nc1cc(-c2ccc(Cl)c(C(F)(F)F)c2)nc(C(=O)O)c1Cl` [Compound 179, 4-Amino-3-chloro-6-(4-chloro-3-(trifluoromethyl)phenyl)pyridine-2-carboxylic acid] yielded a pest or weed control at 560 ppm ([5]; rate 560 ppm) of 98%, a pest or weed control at 560 ppm ([6]; rate 560 ppm) of 98% and a pest or weed control at 560 ppm [7] of 100%. The pest or weed control at 560 ppm ([8]; rate 560 ppm) was 100% and the melting point was 176 °C.
In the case of `Nc1c(F)c(C(=O)O)nc(-c2ccc(Cl)cc2F)c1F` [Compound 206, 4-Amino-3,5-difluoro-6-(4-chloro-2-fluorophenyl)pyridine-2-carboxylic acid], the pest or weed control at 500 ppm ([1]; Table 1) is reported as 85%, the pest or weed control at 500 ppm ([2]; Table 1) is reported as 99% and the pest or weed control at 500 ppm ([3]; Table 1) is reported as 95%. The pest or weed control at 500 ppm ([4]; Table 1) was 70% and the melting point was 155 to 156 °C.
Molecule `Nc1cc(-c2cc3ccccc3o2)nc(C(=O)O)c1Cl` [Compound 219, 4-Amino-6-(2-benzofuranyl)-3-chloropyridine-2-carboxylic acid] has a pest or weed control at 250 ppm ([1]; Table 1) of 80%, a pest or weed control at 250 ppm ([2]; Table 1) of 100% and a pest or weed control at 250 ppm ([3]; Table 1) of 100%. For the same molecule, the pest or weed control at 250 ppm ([4]; Table 1) was 0% and the melting point was 151 °C.
For `COC(=O)c1nc(-c2ccc(Cl)cn2)cc(N)c1Cl` [Compound 111, Methyl 4-amino-3-chloro-6-(5-chloro-2-pyridyl)pyridine-2-carboxylate], the pest or weed control at 250 ppm ([1]; Table 1) was 70%, the pest or weed control at 250 ppm ([2]; Table 1) was 100% and the pest or weed control at 250 ppm ([3]; Table 1) was 100%. The pest or weed control at 250 ppm ([4]; Table 1) was 80% and the melting point was 145 to 150 °C.
Work on `COC(=O)c1nc(-c2ccc3c(c2)CCO3)c(F)c(N)c1Cl` [Compound 85, Methyl 4-amino-3-chloro-5-fluoro-6-(2,3-dihydro-5-benzofuranyl)pyridine-2-carboxylate] yielded a pest or weed control at 250 ppm ([1]; Table 1) of 99%, a pest or weed control at 250 ppm ([2]; Table 1) of 100% and a pest or weed control at 250 ppm ([3]; Table 1) of 100%. It also gave a pest or weed control at 250 ppm ([4]; Table 1) of 70% and a melting point of 120 °C.
With `Nc1cc(-c2ccc(F)cc2Cl)nc(C(=O)O)c1Cl` [Compound 170, 4-Amino-3-chloro-6-(2-chloro-4-fluorophenyl)pyridine-2-carboxylic acid] the pest or weed control at 500 ppm ([1]; Table 1) was 80%, the pest or weed control at 500 ppm ([2]; Table 1) was 100% and the pest or weed control at 500 ppm ([3]; Table 1) was 100%. The pest or weed control at 500 ppm ([4]; Table 1) was 70% and the melting point was 156 to 157 °C.
`COC(=O)c1nc(-c2ccc3c(c2)OCO3)c(F)c(N)c1F` [Compound 95, Methyl 4-amino-3,5-difluoro-6-(3,4-methylenedioxyphenyl)pyridine-2-carboxylate] showed a pest or weed control at 125 ppm ([1]; Table 1) of 70%, a pest or weed control at 125 ppm ([2]; Table 1) of 80% and a pest or weed control at 125 ppm ([3]; Table 1) of 90%. The pest or weed control at 125 ppm ([4]; Table 1) was 60% and the melting point was 189 to 190 °C.
`Nc1c(F)c(-c2ccc(Cl)cc2Cl)nc(C(=O)O)c1Cl` [Compound 199, 4-Amino-3-chloro-5-fluoro-6-(2,4-dichlorophenyl)pyridine-2-carboxylic acid] gave a pest or weed control at 250 ppm ([1]; Table 1) of 85%, a pest or weed control at 125 ppm ([1]; Table 2) of 80% and a pest or weed control at 250 ppm ([2]; Table 1) of 100%. It also gave a pest or weed control at 125 ppm ([2]; Table 2) of 100%, a pest or weed control at 250 ppm ([3]; Table 1) of 100% and a pest or weed control at 125 ppm ([3]; Table 2) of 100%. The pest or weed control at 250 ppm ([4]; Table 1) was 95%, the pest or weed control at 125 ppm ([4]; Table 2) was 90% and the melting point was 152 °C.
Work on `COC(=O)c1nc(-c2ccc(C(F)(F)F)cc2)c(F)c(N)c1F` [Compound 94, Methyl 4-amino-3,5-difluoro-6-[4-(trifluoromethyl)phenyl]pyridine-2-carboxylate] yielded a pest or weed control at 500 ppm ([1]; Table 1) of 90%, a pest or weed control at 500 ppm ([2]; Table 1) of 100% and a pest or weed control at 500 ppm ([3]; Table 1) of 100%. It also gave a pest or weed control at 500 ppm ([4]; Table 1) of 90% and a melting point of 177 to 178 °C.
`COC(=O)c1nc(-c2ccc(Cl)cc2Cl)c(F)c(NC(C)=O)c1Cl` [Compound 49, Methyl 4-acetamido-3-chloro-5-fluoro-6-(2,4-dichlorophenyl)pyridine-2-carboxylate] showed a pest or weed control at 125 ppm ([1]; Table 1) of 10%, a pest or weed control at 125 ppm ([2]; Table 1) of 100% and a pest or weed control at 125 ppm ([3]; Table 1) of 80%. It also gave a pest or weed control at 125 ppm ([4]; Table 1) of 30% and a melting point of 178 to 179 °C.
`Nc1c(F)c(C(=O)O)nc(-c2ccc3c(c2)OCO3)c1F` [Compound 207, 4-Amino-3,5-difluoro-6-(3,4-methylenedioxyphenyl)pyridine-2-carboxylic acid] showed a pest or weed control at 125 ppm ([1]; Table 1) of 70%, a pest or weed control at 125 ppm ([2]; Table 1) of 90% and a pest or weed control at 125 ppm ([3]; Table 1) of 70%. For the same molecule, the pest or weed control at 125 ppm ([4]; Table 1) was 40%, the pest or weed control at 140 ppm ([5]; rate 140 ppm) was 95% and the pest or weed control at 140 ppm ([6]; rate 140 ppm) was 50%. It also gave a pest or weed control at 140 ppm ([8]; rate 140 ppm) of 100% and a melting point of 174 to 175 °C.
In the case of `Nc1cc(-c2ccc(Cl)s2)nc(C(=O)O)c1Cl` [Compound 215, 4-Amino-3-chloro-6-(5-chloro-2-thienyl)pyridine-2-carboxylic acid], the pest or weed control at 125 ppm ([1]; Table 1) is reported as 70%, the pest or weed control at 125 ppm ([2]; Table 1) is reported as 100% and the pest or weed control at 125 ppm ([3]; Table 1) is reported as 100%. For the same molecule, the pest or weed control at 125 ppm ([4]; Table 1) was 70% and the melting point was 178 to 179 °C.
